{"source": "patent US5491145A", "about": "“Imidazopyridazines, their production and use” (Takeda Chemical Industries, Ltd., priority 1992, dated 1996)", "system": "PAF-induced bronchoconstriction in guinea pigs", "assay": "Effect on platelet activating factor (PAF)-induced guinea pig bronchoconstriction (Konzett-Roessler method)", "type": "in vivo, guinea pig (male Hartley)", "conditions": "administered orally one hour before PAF (1 μg/kg i.v.)", "method": "Effect on platelet activating factor (PAF)-induced guinea pig bronchoconstriction Male Hartley guinea pigs (body weights about 500 g) were used. Bronchoconstriction induced by PAF, 1 μg/kg i.v., in guinea pigs was measured using to the method of Konzett-Roessler. With the guinea pig immobilized in the dorsal position, tracheotomy was performed under urethane (1.5 g/kg i.v.) anesthesia and the trachea was connected through a cannula to a respirator. The side branch of the tracheal cannula was connected to a transducer (model 7020, Ugobasile). With the volume of air per feed being controlled at 3-7 ml, the ventilation frequency at 70/min. and the pulmonary loading pressure at 10 cm H2 O, the volume of overflow air was recorded on a […], San-ei Sokki) through the transducer. After administration of gallamine (1 mg/kg i.v.), PAF, 1 μg/kg, dissolved in physiological saline was administered through a jugular vein cannula and the induced bronchoconstriction was recorded for 15 minutes. The drug suspended in a 5% solution of gum arabic was administered orally in a dose of 10 mg/kg or 3 mg/kg one hour before PAF treatment: The results are presented in Table 1."}
{"compound": "6-(2,2-diethyl-5-sulfamoyl-1-pentyloxy)-7-methylimidazo[1,2-b]pyridazine [Example 17]", "values": [{"measurement": "% Inhibition of PAP-induced bronchoconstriction", "setting": "3 mg/kg", "value": 54, "unit": "%"}]}
{"compound": "Cc1cc2nccn2nc1OCC(C)(C)CS(N)(=O)=O", "note": "[Example 3, 6-(2,2-dimethyl-3-sulfamoyl-1-propoxy)-7-methylimidazo[1,2-b]pyridazine]", "values": [{"measurement": "% Inhibition of PAP-induced bronchoconstriction", "setting": "10 mg/kg", "value": 76, "unit": "%"}]}
{"compound": "Cc1cc(OCC(C)(C)CS(N)(=O)=O)nn2ccnc12", "note": "[Example 5, 6-(2,2-dimethyl-3-sulfamoyl-1-propoxy)-8-methylimidazo[1,2-b]pyridazine]", "values": [{"measurement": "% Inhibition of PAP-induced bronchoconstriction", "setting": "10 mg/kg", "value": 90, "unit": "%"}]}
{"compound": "Cc1cc2nccn2nc1OCC(C)(C)CCS(N)(=O)=O", "note": "[Example 11, 6-(2,2-dimethyl-4-sulfamoyl-1-butoxy)-7-methylimidazo[1,2-b]pyridazine]", "values": [{"measurement": "% Inhibition of PAP-induced bronchoconstriction", "setting": "3 mg/kg", "value": 58, "unit": "%"}, {"measurement": "% Inhibition of PAP-induced bronchoconstriction", "setting": "10 mg/kg", "value": 71, "unit": "%"}]}
{"compound": "CCC(CC)(COc1nn2ccnc2cc1C)CS(N)(=O)=O.Cl", "note": "[Example 15, 6-(2,2-diethyl-3-sulfamoyl-1-propoxy)-7-methylimidazo[1,2-b]pyridazine hydrochloride]", "values": [{"measurement": "% Inhibition of PAP-induced bronchoconstriction", "setting": "3 mg/kg", "value": 80, "unit": "%"}]}
{"compound": "CCC(C)(COc1nn2ccnc2cc1C)CS(N)(=O)=O", "note": "(stereo not shown) [Example 20]", "values": [{"measurement": "% Inhibition of PAP-induced bronchoconstriction", "setting": "3 mg/kg", "value": 57, "unit": "%"}]}
